Results as given in ChEMBL document CHEMBL6114980, “Single or double lipid-modified ultra-short antimicrobial peptides for treating infections caused by resistant bacteria” (Eur J Med Chem, 2025).
≈ marks a conversion by molar mass, not a printed value. Calls of active or inactive are those of the source. The calls are words filed in the database; no cut-off is given here. Peptide text beside a SMILES is read from it. * marks the point of attachment. Lauroyl = CCCCCCCCCCCC(=O)*; Octanoyl = CCCCCCCC(=O)*

How the values were obtained:
Staphylococcus aureus [1] = assay: Antibacterial activity against methicillin resistant Staphylococcus aureus infected in male BALB/c mouse model of skin wound infection assessed as reduction in wound area at 2 mg/kg, ip measured after 6 to 36 hrs postinfection; assay type: functional, organism-based; conditions: time 6-36 hrs
Staphylococcus aureus [2] = assay: Additive antibacterial activity against Staphylococcus aureus 113 assessed as fractional inhibitory in presence of streptomycin by checker board assay; assay type: functional
Escherichia coli [3] = assay: Induction of cell membrane disruption in Escherichia coli assessed as PI uptake at 2 times MIC measured after 120 mins by PI staining based flow cytometry analysis (Rvb =<10 %); assay type: functional; conditions: 2 h
Klebsiella pneumoniae [4] = assay: Antibacterial activity against Klebsiella pneumoniae ATCC 700603 assessed as reduction in bacterial growth incubated for 18 to 24 hrs by broth microdilution method; assay type: functional; conditions: time 18-24 hrs
[5] = system: Staphylococcus epidermidis; assay: Antibacterial activity against Staphylococcus epidermidis ATCC 12228 assessed as reduction in bacterial growth incubated for 18 to 24 hrs by broth microdilution method; assay type: functional; conditions: time 18-24 hrs
Escherichia coli [6] = assay: Antibacterial activity against Escherichia coli assessed as reduction in survival bacterial growth in presence of <=2 ug/ml chymotrypsin measured after1 hr by absorbance based analysis; assay type: functional, organism-based; conditions: time 1.0 hrs
Cell membrane [7] = assay: Induction of cytoplasmic membrane depolarization in Escherichia coli assessed as increase in fluorescence intensity at 4 times MIC measured for 10 mins by DiSC3-5 dye based fluorescence assay
Staphylococcus aureus [8] = assay: Antibacterial activity against Staphylococcus aureus 25923 at sub-MIC concentration measured after 15 passages; assay type: functional, organism-based
Staphylococcus aureus [9] = assay: Synergistic antibacterial activity against methicillin-resistant Staphylococcus aureus measured after 18 hrs in presence of cephalothin by absorbance based analysis; assay type: functional, organism-based
Staphylococcus aureus [10] = assay: Synergistic antibacterial activity against methicillin-resistant Staphylococcus aureus assessed as fractional inhibitory in presence of polymyxin B by checker board assay; assay type: functional
Staphylococcus aureus [11] = assay: Antibacterial activity against Staphylococcus aureus 113 assessed as reduction in bacterial growth incubated for 18 to 24 hrs by broth microdilution method; assay type: functional; conditions: time 18-24 hrs
Staphylococcus aureus [12] = assay: Additive antibacterial activity against methicillin-resistant Staphylococcus aureus assessed as fractional inhibitory in presence of cephalothin by checker board assay; assay type: functional
Cell membrane [13] = assay: Induction of outer membrane permeabilization in Escherichia coli assessed as increase in fluorescence intensity at 2 to 4 times MIC measured for 10 mins by fluorescence based NPN uptake assay
Staphylococcus aureus [14] = assay: Induction of cell membrane disruption in Staphylococcus aureus assessed as PI uptake at 2 to 4 times MIC measured after 120 mins by PI staining based flow cytometry analysis (Rvb =<10 %); assay type: functional; conditions: 2 h
Staphylococcus aureus [15] = assay: Antibacterial activity against Staphylococcus aureus 794 assessed as reduction in bacterial growth incubated for 18 to 24 hrs by broth microdilution method; assay type: functional; conditions: time 18-24 hrs
Pseudomonas aeruginosa [16] = assay: Antibacterial activity against Pseudomonas aeruginosa 124 assessed as reduction in bacterial growth incubated for 18 to 24 hrs by broth microdilution method; assay type: functional; conditions: time 18-24 hrs
Staphylococcus aureus [17] = assay: Antibacterial activity against methicillin-resistant Staphylococcus aureus 75 assessed as reduction in bacterial growth incubated for 18 to 24 hrs by broth microdilution method; assay type: functional; conditions: time 18-24 hrs
Staphylococcus aureus [18] = assay: Antibacterial activity against methicillin resistant Staphylococcus aureus infected in male BALB/c mouse model of skin wound infection assessed as reduction in wound area at 2 mg/kg, ip measured after 10 days post infection relative to control; assay type: functional; parameters: scale not given: the % may be the effect or the level left; conditions: time 10 day
Staphylococcus aureus [19] = assay: Antibacterial activity against Staphylococcus aureus assessed as reduction in survival bacterial growth in presence of <=2 ug/ml chymotrypsin measured after1 hr by absorbance based analysis; assay type: functional, organism-based; conditions: time 1.0 hrs
Cell membrane [20] = assay: Induction of outer membrane permeabilization in Escherichia coli assessed as increase in fluorescence intensity at 1 times MIC measured for 10 mins by fluorescence based NPN uptake assay
Staphylococcus aureus [21] = assay: Synergistic antibacterial activity against Staphylococcus aureus 25923 assessed as fractional inhibitory in presence of streptomycin by checker board assay; assay type: functional
[22] = Stability in mouse serum assessed as retention time measured after 1 hr by RP-HPLC analysis; assay type: ADME, cell-free
Staphylococcus aureus [23] = assay: Synergistic antibacterial activity against Staphylococcus aureus 25923 measured after 18 hrs in presence of streptomycin by absorbance based analysis; assay type: functional, organism-based
Staphylococcus aureus [24] = assay: Antibacterial activity against Staphylococcus aureus 125 assessed as reduction in bacterial growth incubated for 18 to 24 hrs by broth microdilution method; assay type: functional; conditions: time 18-24 hrs
[25] = Acute toxicity in male BALB/c mouse assessed inflammatory cell infiltration in liver at 100 to 130 mg/kg, ip measured after 7 days by H and E staining based analysis; assay type: organism-based; conditions: in vivo, 168 h, dose 100-130 mg/kg, time 7 day
Klebsiella pneumoniae [26] = assay: Induction of morphological changes in Klebsiella pneumoniae assessed as cell contraction at 2 times MIC measured after 30 mins by SEM analysis; assay type: functional, organism-based
Escherichia coli [27] = assay: Induction of cell membrane disruption in Escherichia coli assessed as PI uptake at 4 times MIC measured after 120 mins by PI staining based flow cytometry analysis (Rvb =<10 %); assay type: functional; conditions: 2 h
[28] = Acute toxicity in male BALB/c mouse assessed lethal dose administered as ip dose measured for 7 days; assay type: organism-based; conditions: in vivo, time 7 day
Staphylococcus aureus [29] = assay: Synergistic antibacterial activity against methicillin-resistant Staphylococcus aureus 113 assessed as fractional inhibitory in presence of polymyxin B by checker board assay; assay type: functional
Pseudomonas aeruginosa [30] = assay: Antibacterial activity against Pseudomonas aeruginosa 6434N assessed as reduction in bacterial growth incubated for 18 to 24 hrs by broth microdilution method; assay type: functional; conditions: time 18-24 hrs
Staphylococcus aureus [31] = assay: Synergistic antibacterial activity against Staphylococcus aureus 113 measured after 18 hrs in presence of cephalothin by absorbance based analysis; assay type: functional, organism-based
Staphylococcus aureus [32] = assay: Synergistic antibacterial activity against Staphylococcus aureus 25923 measured after 18 hrs in presence of cephalothin by absorbance based analysis; assay type: functional, organism-based
Escherichia coli [33] = assay: Antibacterial activity against Escherichia coli assessed as reduction in survival bacterial growth in presence of FeCl3 measured after 18 to 24 hrs (reference value: 8 microM); assay type: functional; conditions: time 18-24 hrs
Staphylococcus aureus [34] = assay: Synergistic antibacterial activity against Staphylococcus aureus 25923 assessed as fractional inhibitory in presence of polymyxin B by checker board assay; assay type: functional
Cell membrane [35] = assay: Induction of inner membrane permeabilization in Escherichia coli at 2 times MIC measured for 135 mins by absorbance based analysis
Klebsiella pneumoniae [36] = assay: Induction of morphological changes in Klebsiella pneumoniae assessed as cell aggregation at 2 times MIC measured after 30 mins by SEM analysis; assay type: functional, organism-based
Staphylococcus aureus [37] = assay: Synergistic antibacterial activity against methicillin-resistant Staphylococcus aureus measured after 18 hrs in presence of streptomycin by absorbance based analysis; assay type: functional, organism-based
Staphylococcus aureus [38] = assay: Synergistic antibacterial activity against Staphylococcus aureus 25923 measured after 18 hrs in presence of polymyxin B by absorbance based analysis; assay type: functional, organism-based
Escherichia coli [39] = assay: Antibacterial activity against Escherichia coli assessed as reduction in survival bacterial growth by measuring fold change in presence of ZnCl2 measured after 18 to 24 hrs; assay type: functional; conditions: time 18-24 hrs
Staphylococcus aureus [40] = assay: Induction of morphological changes in Staphylococcus aureus assessed as cell aggregation at 2 times MIC measured after 30 mins by SEM analysis; assay type: functional, organism-based
[41] = Acute toxicity in male BALB/c mouse assessed effect on edema in kidney at 100 to 130 mg/kg, ip measured after 7 days by H and E staining based analysis; assay type: organism-based; conditions: in vivo, 168 h, dose 100-130 mg/kg, time 7 day

Row | SMILES | Activity (Staphylococcus aureus [1]) | fractional inhibitory concentration index (FICI) (Staphylococcus aureus [2]) | Activity (Escherichia coli [3]) | MIC (Klebsiella pneumoniae [4]) | MIC [5] | Activity (Escherichia coli [6]) | Activity (Cell membrane [7]) | Activity (Staphylococcus aureus [8]) | Activity (Staphylococcus aureus [9]) | fractional inhibitory concentration index (FICI) (Staphylococcus aureus [10]) | MIC (Staphylococcus aureus [11]) | fractional inhibitory concentration index (FICI) (Staphylococcus aureus [12]) | Activity (Cell membrane [13]) | Activity (Staphylococcus aureus [14]) | MIC (Staphylococcus aureus [15]) | MIC (Pseudomonas aeruginosa [16]) | MIC (Staphylococcus aureus [17]) | Activity (Staphylococcus aureus [18]) | Activity (Staphylococcus aureus [19]) | fractional inhibitory concentration index (FICI) (Staphylococcus aureus [21]) | further results
1 | CCCCCCCC(=O)NCCCC[C@H](NC(=O)CCCCCCC)C(=O)N[C@@H](CCCCN)C(=O)N[C@@H](CCCCN)C(=O)N[C@@H](Cc1c[nH]c2ccccc12)C(=O)N[C@@H](Cc1c[nH]c2ccccc12)C(N)=O (Octanoyl-K(Octanoyl)KKWW-NH2) | Active | 0.75 | >50% | 16 µM (≈ 16.4 µg/mL) | 8 µM (≈ 8.21 µg/mL) | Active | Active; Compound Showed Pronounced Effect Than Quality Control Polymyxin B | inactive | Active | 0.375 | 8 µM (≈ 8.21 µg/mL) | 0.562 | Active | 100% | 16 µM (≈ 16.4 µg/mL) | 8 µM (≈ 8.21 µg/mL) | 8 µM (≈ 8.21 µg/mL) | <20% | Active | 0.312 | Activity (Cell membrane [20]): Active; Retention_time [22]: 19.975 min; Activity (Staphylococcus aureus [23]): Active; MIC (Staphylococcus aureus [24]): 8 µM (≈ 8.21 µg/mL); Activity [25]: Non-toxic; Activity (Klebsiella pneumoniae [26]): Active; Activity (Escherichia coli [27]): 100%; LD50 at 168 h [28]: 113 mg/kg; fractional inhibitory concentration index (FICI) (Staphylococcus aureus [29]): 0.312; MIC (Pseudomonas aeruginosa [30]): 16 µM (≈ 16.4 µg/mL); Activity (Staphylococcus aureus [31]): Active; Activity (Staphylococcus aureus [32]): Active; MIC (Escherichia coli [33]): 8 µM; fractional inhibitory concentration index (FICI) (Staphylococcus aureus [34]): 0.5; Activity (Cell membrane [35]): Active; Activity (Klebsiella pneumoniae [36]): Active; Activity (Staphylococcus aureus [37]): Active; Activity (Staphylococcus aureus [38]): Active; fold change (FC) (Escherichia coli [39]): 2; Activity (Staphylococcus aureus [40]): Active
2 | CCCCCCCCCCCC(=O)N[C@@H](CCCCN)C(=O)N[C@@H](CCCCN)C(=O)N[C@@H](Cc1c[nH]c2ccccc12)C(=O)N[C@@H](Cc1c[nH]c2ccccc12)C(N)=O (Lauroyl-KKWW-NH2) | Active | 0.562 | >50% | 16 µM (≈ 13.2 µg/mL) | 4 µM (≈ 3.31 µg/mL) | Active | Active; Compound Showed Pronounced Effect Than Quality Control Polymyxin B | inactive | Active | 0.375 | 4 µM (≈ 3.31 µg/mL) | 0.75 | Active | 100% | 4 µM (≈ 3.31 µg/mL) | 8 µM (≈ 6.62 µg/mL) | 4 µM (≈ 3.31 µg/mL) | <20% | Active | 0.187 | Retention_time [22]: 19.718 min; Activity (Staphylococcus aureus [23]): Active; MIC (Staphylococcus aureus [24]): 4 µM (≈ 3.31 µg/mL); Activity (Klebsiella pneumoniae [26]): Active; Activity (Escherichia coli [27]): 100%; LD50 at 168 h [28]: 114 mg/kg; MIC (Pseudomonas aeruginosa [30]): 8 µM (≈ 6.62 µg/mL); Activity (Staphylococcus aureus [31]): Active; Activity [41]: Non-toxic; Activity (Staphylococcus aureus [32]): Active; MIC (Escherichia coli [33]): 8 µM; fractional inhibitory concentration index (FICI) (Staphylococcus aureus [34]): 0.5; Activity (Cell membrane [35]): Active; Compound Showed Higher Permeability Than Positive Control 0.1% Tritonx-100; Activity (Klebsiella pneumoniae [36]): Active; Activity (Staphylococcus aureus [37]): Active; Activity (Staphylococcus aureus [38]): Active; fold change (FC) (Escherichia coli [39]): 2; Activity (Staphylococcus aureus [40]): Active
